Assay [1] has as its system Philadelphia Positive Z119 Acute Lymphoblastic Leukemia Cells. Kind of assay: Killing of Philadelphia positive Z119 acute lymphoblastic leukemia cells in culture (colony assay in methylcellulose). Type of assay: cell-based. The conditions noted are these: colonies of more than 20 cells counted at 7-9 days, no exogenous growth factors, read-out: ALL (Z 119) IC50. The procedure:
Z119 cells were plated in 1 ml volumes at a density of 5×10^4 cells/ml, in the absence of exogenous growth factors, into 35 mm petri dishes (Nunc, Gibco) containing IMDM (OCI, Toronto) plus 20% FCS (Cansera Rexdale, ON.) in 0.9% (vol/vol) methylcellulose (Fluka, Switzerland) with the indicated concentration of for various test compounds described above. Cultures were set at 37° C., 5% CO2 in a humidified atmosphere. Colonies consisting of more than 20 cells were counted at 7-9 days using an inverted microscope.

For assay [2], the system named is normal bone marrow cells (BFU-E colonies). Kind of assay: Effect upon normal bone marrow differentiation in culture (CFU-GEMM assay, BFU-E colonies). Format: cell-based. The conditions noted are these: Bone marrow cell, 336 h, BFU-E colonies evaluated at 14 days, read-out: NBM (BFU-E) IC50. How it is done: The CFU-GEMM assay was performed according to Fauser and Messner (1978, Blood, 52(6) 143-8) and Messner and Fausser (1980, Blut, 41(5) 327-33) with some variations. In brief, heparinized bone marrow cells were layered over Percoll (1.077 gm/ml) (Pharmacia Fine Chemical, Piscataway N.J.) and centrifuged at 400 g at 4° C. for 10 minutes to remove neutrophils and RBCs. The fractionated BM cells at […] were cultured in IMDM (OCI, Toronto) containing 0.9% (vol/vol) methylcellulose supplemented with 30% FCS (Cansera Rexdale, ON.) or normal human plasma, a cocktail of cytokines containing G-CSF (10 ng/ml, Amgen), IL-3 (40 U/ml, Immunex), MGF (50 ng/ml, Immunex), Erythropoietin (2 u/ml, Epprex) or TPO (10 ng/ml, Amgen), 5×10^−5 M Bβ-2-mercaptoethanol and the specified concentration of CR4. The culture mixture was plated in 1 ml volumes into 35 mm petri dishes and incubated at 37° C., 5% CO2 in a humidified atmosphere. All cultures were evaluated at 14 days for the number of BFU-E colonies (defined as aggregates of more than 500 hemoglobinized cells or, 3 or more erythroid subcolonies), CFU-GM colonies (defined as granulocyte or monocyte-macrophage cells or both), CFU-Meg colonies (comprising 4 or more megakaryocytes) and CFU-GEMM colonies (a mixed population comprising of all elements).

Some results are limits rather than exact numbers.

In general, IC50 refers to the concentration that inhibits the measured activity by half. As to `COc1cc(/C=C/C=C/C(=O)NCc2ccccc2)ccc1O` [CRD-81, 5-(4-Hydroxy-3-methoxyphenyl)-penta-2E,4E-dienoic acid benzylamide], the 50% inhibitory concentration (IC50) in assay [1] was greater than 1000 nM; in assay [2] it was greater than 10000 nM.
For `COc1cc(/C=C/C=C/C(=O)NCc2ccc(O)c(O)c2)ccc1O` [CRD-85, 5-(4-Hydroxy-3-methoxyphenyl)-penta-2E,4E-dienoic acid 3,4-dihydroxybenzylamide] the same measures were greater than 1000 nM and greater than 10000 nM.
In the same order, the values of `O=C(/C=C/C=C/c1ccc(O)c(O)c1)NCc1ccccc1` [CRD-82, 5-(3,4-Dihydroxyphenyl)-penta-2E,4E-dienoic acid benzylamide] are 460 nM and greater than 25000 nM.
For the molecule `COc1cc(/C=C/C=C/C(=O)NCc2ccc(O)c(O)c2)cc(OC)c1O` [CRD-84, 5-(4-Hydroxy-3,5-dimethoxyphenyl)-penta-2E,4E-dienoic acid 3,4-dihydroxybenzylamide], the IC50 in assay [1] is greater than 1000 nM; in assay [2] it was greater than 10000 nM.

The values above are taken from patent publication US7407989B2, “Compounds useful for modulating abnormal cell proliferation” (The Hospital for Sick Children, priority 2004, dated 2008).
